# Test results from PubChem BioAssay (NCI).
#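 Method: 48-hour compound exposure of cells in 96-well plates, five concentrations, linear interpolation of endpoints. TGI: concentration producing complete growth inhibition.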
# Legend:
# Experiment in all cases: NCI-60 cell line screen, 48 h
# CCRF-CEM leukemia = tested on: CCRF-CEM leukemia
# HL-60(TB) leukemia = tested on: HL-60(TB) leukemia
# HS 578T breast = tested on: HS 578T breast
# MDA-N = tested on: MDA-N
# OVCAR-4 ovarian = tested on: OVCAR-4 ovarian
# SF-268 CNS = tested on: SF-268 CNS
# SF-539 CNS = tested on: SF-539 CNS
# SK-MEL-2 melanoma = tested on: SK-MEL-2 melanoma
# SK-MEL-28 melanoma = tested on: SK-MEL-28 melanoma
# T-47D breast = tested on: T-47D breast
# TK-10 renal = tested on: TK-10 renal
# UACC-257 melanoma = tested on: UACC-257 melanoma
SMILES,TGI (CCRF-CEM leukemia) [µM],TGI (HL-60(TB) leukemia) [µM],TGI (HS 578T breast) [µM],TGI (MDA-N) [µM],TGI (OVCAR-4 ovarian) [µM],TGI (SF-268 CNS) [µM],TGI (SF-539 CNS) [µM],TGI (SK-MEL-2 melanoma) [µM],TGI (SK-MEL-28 melanoma) [µM],TGI (T-47D breast) [µM],TGI (TK-10 renal) [µM],TGI (UACC-257 melanoma) [µM]
CCOC(=O)c1ccc(NC(=O)O/N=C(/Cl)CCl)cc1,> 100,68.7,> 100,> 100,> 100,> 100,> 100,> 100,> 100,> 100,> 100,> 100
O=C1NC(=S)NNC12c1ccccc1-c1ccccc12,> 10,> 10,> 10,> 10,> 10,> 10,> 10,,> 10,> 10,> 10,> 10
COC(=O)C1(OC(=O)Sc2ccccc2)CCN(C)CC1,19.7,24,70.9,49.4,> 100,62,26.5,> 100,> 100,> 100,> 75.6,56.6
O=C(NC(CO)Cc1ccc(Oc2cc(CC(CO)NC(=O)OCc3ccccc3)ccc2OC(=O)OCc2ccccc2)cc1)OCc1ccccc1 (stereo not given),> 100,41.7,28.4,50.3,65.3,88.9,38.5,58.3,42.9,23.1,54.1,29
O=C(NCCCN(CCCCN(CCCNC(=O)C(F)(F)F)CCCc1ccccc1)CCCc1ccccc1)C(F)(F)F,18.8,23.9,4.2,3.04,17.6,3.3,3.16,,3.16,3.84,3.79,3.32
COc1ccc(C(=O)/C=C/c2ccncc2)cc1OC,18.6,5.02,36.7,26.2,23.2,30.5,22.1,30.8,31.7,30.9,30,25.5
COc1ccc(CCN=C2OCc3ccccc32)cc1OC,> 100,32.6,> 100,> 100,> 100,,63.2,> 100,> 100,86.6,> 100,> 100
CN(C)/C=N/n1c2ccccc2c2ccccc21,> 100,> 100,> 100,> 100,> 100,> 100,> 100,> 100,> 100,> 100,> 100,> 100
O=S(=O)(O)c1ccc(N=Nc2ccc(N=Nc3c(O)ccc4ccccc34)cc2)cc1,> 100,> 100,> 100,> 100,> 100,> 100,,> 100,> 100,> 100,> 100,> 100
CC(NNC(=O)CC(=O)N(C(=O)c1ccccc1)c1ccc(Cl)cc1)c1cc2ccccc2oc1=O (stereo not given),> 10,> 10,> 10,> 10,> 10,> 10,> 10,> 10,> 10,> 10,> 10,> 10
O=C(c1cc(Cl)cc(Cl)c1)N1CCN(C(=O)c2cc(Cl)cc(Cl)c2)C1=S,21.4,6.28,> 100,34.5,38.4,37.6,22.7,34.1,> 54.5,45.2,23.2,28.8
CN1CCN(CN2C(=O)C3C4C=CC(C3C2=O)C2C(=O)N(CN3CCN(C)CC3)C(=O)C42)CC1 (stereo not given),> 100,61.6,> 100,> 100,> 100,> 100,> 83.3,> 100,> 58,> 100,> 100,> 100
C[C@H]1C2Cc3cc(N)ccc3[C@@]1(C)CCN2CCc1ccccc1,> 100,87.7,> 100,> 100,> 100,> 100,> 100,> 100,> 100,> 100,> 100,> 100
C[C@@H]1C[C@](O)([C@@H](C)Cl)C(=O)O[C@@H]2CCN3CC=C(COC(=O)[C@]1(C)O)[C@H]23,> 10,> 100,> 100,> 100,> 100,> 100,> 100,> 100,> 100,> 100,> 100,> 100
CC12CC(C#N)(C#N)C(C#N)(CO1)C(=N)O2 (stereo not given),69.1,> 100,> 100,> 100,> 100,> 100,> 100,> 100,> 100,> 100,> 100,> 100
Oc1ccc(-c2nc(-c3ccc(F)cc3)c(-c3ccc4ccccc4n3)[nH]2)cc1,> 100,> 100,28.6,27.9,26.3,43.8,,32.9,37.7,25.1,26,26.3
O=C1NN=C2C=C(c3ccc(Cl)cc3)CC(c3cccc(Cl)c3)C12 (stereo not given),71.7,49.1,55,65.3,66.5,> 100,55.7,45.3,,> 100,48.1,48.5
COc1cccc2c1C(=O)c1c(O)c3c(c(O)c1C2=O)C[C@@](O)(C(=O)CO)C[C@@H]3OC1CC(N)C(OC)C(C)O1 (stereo not given in full),0.176,0.388,1.14,36.2,9.67,1.97,0.449,0.407,1.9,1.73,36.6,1.34
CCOC(=O)c1ccc(C(=O)/C(C#N)=C2\CCCN2C)[nH]1,> 100,> 100,> 100,> 100,> 100,> 100,,> 100,> 100,> 100,> 100,> 100

SMILES,TGI (CCRF-CEM leukemia) [µM],TGI (HL-60(TB) leukemia) [µM],TGI (HS 578T breast) [µM],TGI (MDA-N) [µM],TGI (OVCAR-4 ovarian) [µM],TGI (SF-268 CNS) [µM],TGI (SF-539 CNS) [µM],TGI (SK-MEL-2 melanoma) [µM],TGI (SK-MEL-28 melanoma) [µM],TGI (T-47D breast) [µM],TGI (TK-10 renal) [µM],TGI (UACC-257 melanoma) [µM]
O=[N+]([O-])c1ccc(S(=O)(=O)N=Ic2ccccc2)cc1,> 100,> 100,> 100,> 100,> 100,> 100,> 100,> 100,> 100,> 100,> 100,> 100
CC(=O)OC1O[C@@H](C(C)(C)O)CC[C@@H]1[C@H]1CC[C@@]2(C)C3=C(CC[C@]12C)[C@@]1(C)C[C@@H](OC(=O)CC(C)(O)CC(=O)O)[C@H](OC(C)=O)C(C)(C)C1CC3 (stereo not given in full),41.6,65.1,42.3,34.4,37.6,,,38.7,30.8,40.3,33.2,31.7
NCCCNCCCCNCCCN,5.72,15.2,98,41.5,> 21.8,> 92.9,34.3,> 100,,5.91,18.9,> 100
CCOP(=O)(O)C(C)(C)NC,> 100,> 100,> 100,> 100,> 100,> 100,> 100,> 100,> 100,> 100,> 100,> 100
Cc1ccc(-c2c3c(n(C4OC(CO)C(O)C(O)C4O)c(=S)c2C#N)CC(C)(C)CC3=O)cc1 (stereo not given),> 100,> 100,> 100,> 100,> 100,> 100,> 100,> 100,> 100,> 100,> 100,> 100
O=c1cc(-c2ccccc2)[nH]c2c(S)cccc12,> 100,> 100,> 100,> 100,> 100,> 100,> 100,,> 100,> 100,> 100,> 100
COc1ccc(OC)c(C2Cc3cnc4nc(N)nc(N)c4c3C2)c1 (stereo not given),> 100,40,> 100,83.7,53.8,> 100,28,42.2,> 100,65.5,79.8,40.1
O=[N+]([O-])c1cc2c(c3nonc13)OCCCCO2,4.98,5.15,67.7,16.4,27.4,27.3,7.27,29.2,22.5,60.5,93.7,28.9
CC(C)(C)NC(=O)N1N=C(c2ccccc2)C1c1ccccc1 (stereo not given),> 100,> 100,> 100,> 100,> 100,> 100,41.4,,> 100,> 100,> 100,> 100
Cn1c(N)c2c3c(sc2nc1=O)CCCC3,,> 75,> 75,> 75,> 75,> 75,,> 75,> 75,> 75,> 75,> 75
COc1ccc(C(OC(C)=O)C2C(=C(C#N)C#N)c3ccccc3C2=C(C#N)C#N)cc1 (stereo not given),62.6,41.9,91.6,> 100,> 100,> 100,49.7,83.8,> 100,> 100,> 100,> 100
O=P(O)(Cc1ccccc1)c1ccccc1-c1ccccc1,> 100,> 100,> 100,> 100,> 100,> 100,> 100,> 100,> 100,> 100,> 100,> 100
CCO/C=N/NC(=O)CSc1nc2ccc(I)cc2c(=O)n1Cc1ccccc1,> 100,> 100,> 100,> 100,> 100,> 100,> 100,65.1,> 100,> 100,> 100,> 100
COC(=O)c1c(O)ccc2c1c1c(n2Cc2ccc(Cl)cc2Cl)C(=O)c2ccccc2C1,71.3,> 100,> 100,> 100,70.6,> 100,> 100,> 100,> 100,> 100,> 100,> 100
CCOC(=O)c1cc(C2(O)CCN(CC(C)CC)C2=O)c(-c2cc(C)no2)[nH]1 (stereo not given),> 100,> 100,> 100,> 100,> 100,> 100,> 100,> 100,> 100,> 100,,> 100
CC(C)(C)C(=O)OC(N)/C=C/c1ccccc1 (stereo not given),> 100,> 100,> 100,> 100,> 100,,> 100,> 100,> 100,> 100,,> 100
C[C@@]12CCC3C1C=C1C(=O)c4cc(O)ccc4C(=O)[C@]1(O2)[C@@]3(C)C=O,4.02,3.88,75,12.6,15.7,36.7,12.3,20.2,,14,21.7,18.7
Cc1c(O)c(C)c2c(C)cn(C(=O)C(C)(C)C)c2c1C,55.7,> 100,77.2,38.8,27,> 100,30,43.4,28.7,90,36.4,
CC(C)C[C@H]1[C@@H](OCc2ccccc2)COS(=O)N1[C@H](C)c1ccccc1 (stereo not given in full),36.4,51.7,38.6,> 100,,> 100,,36.1,> 100,> 100,> 100,> 100
